From patent US9708336B2, “Metallo-beta-lactamase inhibitors” (priority 2014, dated 2017) come the findings set out here.

One test deals with VIM-1 (Pseudomonas aeruginosa (strain ATCC 15692 / DSM 22644 / CIP 104116 / JCM 14847 / LMG 12228 / 1C / PRS 101 / PAO1), UniProt A0A0F7KYQ8). As to the kind of experiment: Enzyme activity: determination of IC50, fluorescence assay with CCF2-FA substrate (VIM-1). It is filed as biochemical.
The next test deals with NDM-1 (Klebsiella pneumoniae, UniProt C7C422). The test can be described thus: biochemical. The test is classed as biochemical. The following applies: fluorescence assay with CCF2-FA substrate; read-out: NDM-1 IC50.
The target in the next test is IMP-1 (Serratia marcescens, UniProt P52699). The test can be described thus: biochemical. It is filed as biochemical. The following applies: fluorescence assay with CCF2-FA substrate; read-out: IMP-1 IC50.
Test [1] relates to Klebsiella pneumoniae expressing VIM-1 (IHMA599644). The test can be described thus: Antibiotic potentiation activity: synergistic concentration (MITC95) with imipenem, OD600 growth. The test is classed as cell-based. The following applies: concentration giving 95% inhibition of bacterial growth. The method, boiled down:
(§1)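 Clinical MBL-producing strains (E. coli NDM-1, S. marcescens IMP-1, K. pneumoniae VIM-1) from overnight plates were diluted 1:100 into 1.1×CAMHB. Compound was tested with imipenem at 4 μg/ml (optionally 1 μg/ml) or without it. After 22–24 h at 35 °C, growth was read as OD600.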

The subject of test [2] is Serratia marcescens expressing IMP-1 (CL5741). The description is as above. The test is classed as cell-based. The following applies: concentration giving 95% inhibition of bacterial growth. The method, boiled down: as §1
Test [3] has as its system Escherichia coli expressing NDM-1 (CLB30005). Described as above. It is filed as cell-based. The following applies: concentration giving 95% inhibition of bacterial growth. The method, boiled down: as §1
Where [4] appears, read: fluorescence assay with CCF2-FA substrate, read-out: VIM-1 IC50.

Where two headings read alike, the source gives them in different places.

IMP-1, sequence (P52699 whole entry, looked up): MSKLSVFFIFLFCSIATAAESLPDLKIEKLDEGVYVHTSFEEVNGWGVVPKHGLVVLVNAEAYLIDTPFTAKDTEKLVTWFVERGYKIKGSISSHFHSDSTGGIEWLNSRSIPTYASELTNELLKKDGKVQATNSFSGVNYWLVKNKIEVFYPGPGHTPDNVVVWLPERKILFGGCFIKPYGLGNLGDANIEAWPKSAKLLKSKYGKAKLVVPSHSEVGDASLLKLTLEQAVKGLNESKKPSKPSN
NDM-1, sequence (C7C422 whole entry, looked up, species assumed): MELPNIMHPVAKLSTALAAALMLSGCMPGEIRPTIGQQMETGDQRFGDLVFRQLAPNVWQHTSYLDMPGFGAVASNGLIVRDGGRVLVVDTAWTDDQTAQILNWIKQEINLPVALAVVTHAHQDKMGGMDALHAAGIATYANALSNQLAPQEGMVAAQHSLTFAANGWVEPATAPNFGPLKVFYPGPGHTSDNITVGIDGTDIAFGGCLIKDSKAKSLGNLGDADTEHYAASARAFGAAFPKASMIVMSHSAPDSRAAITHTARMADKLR

With `NS(=O)(=O)c1cccc(-c2ccc3[nH]c(=O)[nH]c3c2)c1-c1nn[nH]n1` [Example 84, 3-(2-oxo-2,3-dihydro-1H-benzimidazol-5-yl)-2-(2H-tetrazol-5-yl)benzenesulfonamide], the values for the IC50 at VIM-1 (setting [4]), at NDM-1 and on IMP-1 were 23.2 nM, 3.08 nM and 708 nM, respectively. In test [1], the “Klebsiella pneumoniae expressing VIM-1 (IHMA 599644) MITC95” value was determined as 6.25 µM. For the same molecule, the “Serratia marcescens expressing IMP-1 (CL5741) MITC95” value in test [2] was 50 µM. Further, the “Escherichia coli expressing NDM-1 (CLB 30005) MITC95” value in test [3] worked out at 0.7813 µM.
As for `NS(=O)(=O)c1cccc(-c2ccc3c(c2)CCCO3)c1-c1nn[nH]n1` [Example 85, 3-(3,4-dihydro-2H-chromen-6-yl)-2-(2H-tetrazol-5-yl)benzenesulfonamide], the half-inhibitory concentration (IC50) – broadly, the midpoint of a concentration-inhibition curve – on VIM-1 (setting [4]) turned out to be 28 nM; at NDM-1, 1.81 nM; on IMP-1 it was 94.6 nM. In addition, the “Klebsiella pneumoniae expressing VIM-1 (IHMA 599644) MITC95” value in test [1] was found to be 150 µM. Moreover, in test [2], the “Serratia marcescens expressing IMP-1 (CL5741) MITC95” value turned out to be 37.5 µM. The “Escherichia coli expressing NDM-1 (CLB 30005) MITC95” value in test [3] is 2.344 µM.
With `CS(=O)(=O)Nc1cccc(-c2cccc(S(N)(=O)=O)c2-c2nn[nH]n2)c1` [Example 86, 3′-[(methylsulfonyl)amino]-2-(2H-tetrazol-5-yl)biphenyl-3-sulfonamide], the IC50 amounted to 1070 nM on VIM-1 (setting [4]), 11 nM at NDM-1 and 67.4 nM on IMP-1. The “Klebsiella pneumoniae expressing VIM-1 (IHMA 599644) MITC95” value in test [1] stood at 200 µM. For the same molecule, the “Serratia marcescens expressing IMP-1 (CL5741) MITC95” value in test [2] was 3.125 µM. The “Escherichia coli expressing NDM-1 (CLB 30005) MITC95” value in test [3] came to 0.7813 µM.
As for `CN(C)CCNC(=O)c1ccc(-c2cccc(S(N)(=O)=O)c2-c2nn[nH]n2)cc1` [Example 87, N-[2-(dimethylamino)ethyl]-3′-sulfamoyl-2′-(2H-tetrazol-5-yl)biphenyl-4-carboxamide], the IC50 on VIM-1 (setting [4]) amounted to 2090 nM; on NDM-1 it was 95.5 nM; on IMP-1 it was 908 nM. Moreover, the “Klebsiella pneumoniae expressing VIM-1 (IHMA 599644) MITC95” value in test [1] came to 200 µM. Besides, the “Serratia marcescens expressing IMP-1 (CL5741) MITC95” value in test [2] turned out to be 18.75 µM. The “Escherichia coli expressing NDM-1 (CLB 30005) MITC95” value in test [3] amounted to 3.906 µM.
For `CONC(=O)c1ccc(-c2cccc(S(N)(=O)=O)c2-c2nn[nH]n2)cc1` [Example 88, N-methoxy-3′-sulfamoyl-2′-(2H-tetrazol-5-yl)biphenyl-4-carboxamide], the results for the IC50 at VIM-1 (setting [4]), on NDM-1 and at IMP-1 were 243 nM, 2.98 nM and 87.3 nM, respectively. For the same molecule, in test [1], the “Klebsiella pneumoniae expressing VIM-1 (IHMA 599644) MITC95” value was 100 µM. In addition, the “Serratia marcescens expressing IMP-1 (CL5741) MITC95” value in test [2] stood at 12.5 µM. Also, the “Escherichia coli expressing NDM-1 (CLB 30005) MITC95” value in test [3] stood at 1.953 µM.
With `NS(=O)(=O)c1cccc(-c2ccc3cn[nH]c3c2)c1-c1nn[nH]n1` [Example 90, 3-(1H-indazol-6-yl)-2-(2H-tetrazol-5-yl)benzenesulfonamide], the IC50 at VIM-1 (setting [4]) was 15.5 nM; at NDM-1, 2.24 nM; at IMP-1, 197 nM. The “Klebsiella pneumoniae expressing VIM-1 (IHMA 599644) MITC95” value in test [1] was determined as 12.5 µM. Also, the “Serratia marcescens expressing IMP-1 (CL5741) MITC95” value in test [2] stood at 25 µM. The “Escherichia coli expressing NDM-1 (CLB 30005) MITC95” value in test [3] was 0.5859 µM.
As for `COc1ncc(-c2cccc(S(N)(=O)=O)c2-c2nn[nH]n2)cn1` [Example 91, 3-(2-methoxypyrimidin-5-yl)-2-(2H-tetrazol-5-yl)benzenesulfonamide], the figures for the IC50 at VIM-1 (setting [4]), on NDM-1 and at IMP-1 were 180 nM, 27.5 nM and 830 nM, respectively. Further, the “Klebsiella pneumoniae expressing VIM-1 (IHMA 599644) MITC95” value in test [1] was 75 µM. Further, the “Serratia marcescens expressing IMP-1 (CL5741) MITC95” value in test [2] stood at 50 µM. In test [3], the “Escherichia coli expressing NDM-1 (CLB 30005) MITC95” value stood at 0.7813 µM.
Turning to `NS(=O)(=O)c1cccc(-c2cnc(N3CCOCC3)nc2)c1-c1nn[nH]n1` [Example 94, 3-(2-morpholin-4-ylpyrimidin-5-yl)-2-(2H-tetrazol-5-yl)benzenesulfonamide], the figures for the IC50 at VIM-1 (setting [4]), on NDM-1 and on IMP-1 were 234 nM, 6.32 nM and 164 nM, respectively. Besides, the “Klebsiella pneumoniae expressing VIM-1 (IHMA 599644) MITC95” value in test [1] was 100 µM. Besides, the “Serratia marcescens expressing IMP-1 (CL5741) MITC95” value in test [2] was determined as 12.5 µM. Further, in test [3], the “Escherichia coli expressing NDM-1 (CLB 30005) MITC95” value is 2.344 µM.
For `NS(=O)(=O)c1cccc(-c2ccnn2Cc2ccccc2)c1-c1nn[nH]n1` [Example 95, 3-(1-benzyl-1H-pyrazol-5-yl)-2-(2H-tetrazol-5-yl)benzenesulfonamide], the IC50 stood at 375 nM against VIM-1 (VIM-1 IC50, fluorescence assay with CCF2-FA substrate); 1.51 nM at NDM-1; 534 nM at IMP-1. Also, the “Klebsiella pneumoniae expressing VIM-1 (IHMA 599644) MITC95” value in test [1] is more than 200 µM. In test [2], the “Serratia marcescens expressing IMP-1 (CL5741) MITC95” value turned out to be 106.3 µM. Further, the “Escherichia coli expressing NDM-1 (CLB 30005) MITC95” value in test [3] came to 3.906 µM.
In the case of `NS(=O)(=O)c1cccc(-c2csc3ccccc23)c1-c1nn[nH]n1` [Example 96, 3-(1-benzothiophen-3-yl)-2-(2H-tetrazol-5-yl)benzenesulfonamide], the results for the half-inhibitory concentration (IC50) at VIM-1 (setting [4]), on NDM-1 and on IMP-1 were 3.55 nM, 1.31 nM and 109 nM, respectively. Further, in test [1], the “Klebsiella pneumoniae expressing VIM-1 (IHMA 599644) MITC95” value amounted to 25 µM. Also, the “Serratia marcescens expressing IMP-1 (CL5741) MITC95” value in test [2] came to 15.63 µM. Also, in test [3], the “Escherichia coli expressing NDM-1 (CLB 30005) MITC95” value came to 1.758 µM.
Regarding `Cn1ccc(-c2cccc(S(N)(=O)=O)c2-c2nn[nH]n2)n1` [Example 97, 3-(1-methyl-1H-pyrazol-3-yl)-2-(2H-tetrazol-5-yl)benzenesulfonamide], the 50% inhibitory concentration (IC50) worked out at 1620 nM on VIM-1 (setting [4]), 71.1 nM on NDM-1 and 1570 nM on IMP-1. Besides, the “Klebsiella pneumoniae expressing VIM-1 (IHMA 599644) MITC95” value in test [1] amounted to 200 µM. Further, the “Serratia marcescens expressing IMP-1 (CL5741) MITC95” value in test [2] worked out at 18.75 µM. In addition, in test [3], the “Escherichia coli expressing NDM-1 (CLB 30005) MITC95” value amounted to 0.5859 µM.
Take `N#Cc1ccc2[nH]c(-c3cccc(S(N)(=O)=O)c3-c3nn[nH]n3)cc2c1` [Example 99, 3-(5-cyano-1H-indol-2-yl)-2-(2H-tetrazol-5-yl)benzenesulfonamide]: the IC50 was 104 nM on VIM-1 (setting [4]), 6.98 nM on NDM-1 and 208 nM on IMP-1. Moreover, the “Klebsiella pneumoniae expressing VIM-1 (IHMA 599644) MITC95” value in test [1] was more than 200 µM. Further, the “Serratia marcescens expressing IMP-1 (CL5741) MITC95” value in test [2] amounted to 28.13 µM. In addition, in test [3], the “Escherichia coli expressing NDM-1 (CLB 30005) MITC95” value came out at 9.375 µM.
`NS(=O)(=O)c1cccc(-c2cnn(Cc3ccncc3)c2)c1-c1nn[nH]n1` [Example 100, 3-[1-(pyridin-4-ylmethyl)-1H-pyrazol-4-yl]-2-(2H-tetrazol-5-yl)benzenesulfonamide]: the concentration for half-maximal inhibition (IC50) was found to be 940 nM on VIM-1 (setting [4]), 29.6 nM at NDM-1 and 146 nM at IMP-1. The “Klebsiella pneumoniae expressing VIM-1 (IHMA 599644) MITC95” value in test [1] was more than 200 µM. Also, the “Serratia marcescens expressing IMP-1 (CL5741) MITC95” value in test [2] was 14.06 µM. The “Escherichia coli expressing NDM-1 (CLB 30005) MITC95” value in test [3] came to 7.031 µM.
With `NS(=O)(=O)c1cccc(-c2cnn(Cc3ccccn3)c2)c1-c1nn[nH]n1` [Example 101, 3-[1-(pyridin-2-ylmethyl)-1H-pyrazol-4-yl]-2-(2H-tetrazol-5-yl)benzenesulfonamide], the half-maximal inhibitory concentration (IC50) at VIM-1 (setting [4]) amounted to 111 nM; on NDM-1 it was 40.9 nM; on IMP-1 it was 517 nM. The “Klebsiella pneumoniae expressing VIM-1 (IHMA 599644) MITC95” value in test [1] is 125 µM. Further, the “Serratia marcescens expressing IMP-1 (CL5741) MITC95” value in test [2] stood at 14.06 µM. Further, the “Escherichia coli expressing NDM-1 (CLB 30005) MITC95” value in test [3] came out at 3.906 µM.
